Data from PubChem BioAssay AID1259408 (Genetic Toxicology Data Bank (GENE-TOX), 2018).
Activity calls are given as the source filed them. No rule for the calls is given here.

Test system: GENE-TOX genotoxicity assays, various organisms and cells
Assay: GENE-TOX mutagenicity studies
Conditions: for call: Assay Type: In vivo carcinogenicity studies
[1] = Species/Cell Type: Salmonella typhimurium (one or more of the five standard strains: TA98, TA100, TA1535, TA1537, and TA1538), Assay Type: Histidine reverse gene mutation, Ames assay, Assay Code: SAL+, Evaluation Type: Evaluation A (Pre-1980)
[2] = Species/Cell Type: Drosophila melanogaster, Assay Type: Sex-linked recessive lethal gene mutation, Assay Code: SRL+, Evaluation Type: Evaluation A (Pre-1980)
[3] = Species/Cell Type: Chinese hamster lung (V79) cells, Assay Type: Forward gene mutation at the HPRT or ouabain locus, Assay Code: V79+, Evaluation Type: Evaluation A (Pre-1980)
[4] = Species/Cell Type: Nonhuman, Assay Code: CCGT, Evaluation Type: Evaluation A (Pre-1980)
[5] = Species/Cell Type: Salmonella typhimurium (one or more of the five standard strains: TA98, TA100, TA1535, TA1537, and TA1538), Assay Type: Histidine reverse gene mutation, Ames assay, Assay Code: SALT, Evaluation Type: Evaluation A (Pre-1980)
[6] = Species/Cell Type: Human, Assay Type: Sister-chromatid exchange (SCE) in vitro, Assay Code: SC1T, Evaluation Type: Evaluation B (Post-1980)
[7] = Species/Cell Type: Nonhuman, Assay Type: Sister-chromatid exchange (SCE) in vitro, Assay Code: SC2+, Evaluation Type: Evaluation B (Post-1980)
[8] = Species/Cell Type: Saccharomyces cerevisiae, Assay Type: Reverse gene mutation, Assay Code: YER+, Evaluation Type: Evaluation A (Pre-1980)
[9] = Species/Cell Type: Nonhuman, Assay Type: Sister-chromatid exchange (SCE) in vitro, Assay Code: SC2T, Evaluation Type: Evaluation B (Post-1980)
[10] = Species/Cell Type: Human lymphocytes, Assay Type: Sister-chromatid exchange (SCE) in vivo, Assay Code: SCY+, Evaluation Type: Evaluation B (Post-1980)
[11] = Species/Cell Type: Nonhuman, Assay Type: Sister-chromatid exchange (SCE) in vitro, Assay Code: SC2+D, Dose Response: With dose response, Evaluation Type: Evaluation B (Post-1980)
[12] = Species/Cell Type: Salmonella typhimurium (one or more of the five standard strains: TA98, TA100, TA1535, TA1537, and TA1538), Assay Type: Histidine reverse gene mutation, Ames assay, Assay Code: SAL+*, Activation: With metabolic activation, Evaluation Type: Evaluation A (Pre-1980)

## C#CC(OC(=O)NC1CCCCC1)(c1ccccc1)c1ccccc1
Species/Cell Type: Human diploid fibroblasts, Assay Type: Unscheduled DNA synthesis (UDS) in vitro, DNA effects, Assay Code: UDHT, Evaluation Type: Evaluation A (Pre-1980)
  mutagenic call: no conclusion
[1]
  mutagenic call: active; positive

## CS(=O)(=O)OC/C=C\COS(C)(=O)=O
Species/Cell Type: Drosophila melanogaster, Assay Type: Sex-linked recessive lethal gene mutation, Assay Code: SRLT, Evaluation Type: Evaluation A (Pre-1980)
  mutagenic call: no conclusion

## O=C1C=C(N2CC2)C(=O)C=C1N1CC1
[2]
  mutagenic call: active; positive

## C[C@@H]1Cc2c(Cl)cc(C(=O)NC(Cc3ccccc3)C(=O)O)c(O)c2C(=O)O1 (stereo partly specified)
Species/Cell Type: Nonhuman, Assay Type: Sister-chromatid exchange (SCE) in vivo, Assay Code: SC3-, Evaluation Type: Evaluation B (Post-1980)
  mutagenic call: inactive; negative

## O=[Te](=O)(O)O
Species/Cell Type: Bacillus subtilis (H17 vs M45), Assay Type: Rec-assay, spot test, DNA effects (bacterial DNA repair), Assay Code: REW+, Evaluation Type: Evaluation A (Pre-1980)
  mutagenic call: active; positive
Species/Cell Type: Bacillus subtilis (H17 vs M45), Assay Type: Rec-assay, spot test, DNA effects (bacterial DNA repair), Assay Code: REW-, Evaluation Type: Evaluation A (Pre-1980)
  mutagenic call: inactive; negative

## OC1C=Cc2c(cc3ccc4cccc5ccc2c3c45)C1O (stereo unspecified)
[3]
  mutagenic call: active; positive

## c1ccc2cc3c4c(ccc3cc2c1)CCC1OC41 (stereo unspecified)
[3]
  mutagenic call: active; positive

## CC(=O)[O-].CC(=O)[O-].[Cd+2]
[4]
  call: no conclusion
Species/Cell Type: Nonhuman, Assay Type: Sister-chromatid exchange (SCE) in vitro, Assay Code: SC2-, Evaluation Type: Evaluation B (Post-1980)
  mutagenic call: inactive; negative
Species/Cell Type: Syrian hamster embryo (SA7/SHE) cells, Assay Type: Cell transformation, viral enhanced, Assay Code: CT7+, Evaluation Type: Evaluation A (Pre-1980)
  mutagenic call: active; positive
Species/Cell Type: Syrian hamster embryo (SHE) cells, Assay Type: Cell transformation, clonal assay, Assay Code: CTC+, Evaluation Type: Evaluation A (Pre-1980)
  mutagenic call: active; positive

## Oc1cccc2cc3ccc4cccc5ccc(c12)c3c45
[4]
  call: no conclusion
[5]
  mutagenic call: no conclusion

## COc1cc(C)c(-c2csc(N(C)C(=O)Nc3ccc(Cl)cc3)n2)cc1OC
Species/Cell Type: Salmonella typhimurium, Assay Type: Forward and reverse gene mutation, host-mediated assay, Assay Code: HMA+, Evaluation Type: Evaluation A (Pre-1980)
  mutagenic call: active; positive

## CCCCOc1ccc(CC(=O)NO)cc1
Species/Cell Type: Human lymphocytes, Assay Type: Sister-chromatid exchange (SCE) in vitro, Assay Code: SCLT, Evaluation Type: Evaluation B (Post-1980)
  mutagenic call: no conclusion
[6]
  mutagenic call: no conclusion
[7]
  mutagenic call: active; positive
[5]
  mutagenic call: no conclusion

## OC1c2ccccc2C2OC2[C@H]1O (stereo partly specified)
Species/Cell Type: Escherichia coli polA (W3119 vs P3478), Assay Type: Rec-assay, DNA effects (bacterial DNA repair), Assay Code: RE1+, Evaluation Type: Evaluation A (Pre-1980)
  mutagenic call: active; positive

## COC(=O)COc1ccc(Cl)cc1C
[8]
  mutagenic call: active; positive

## CCCCC/C=C\C/C=C\C/C=C\C/C=C\CCCC(=O)O
[6]
  mutagenic call: no conclusion
Species/Cell Type: Mammalian polychromatic erythrocytes, Assay Type: Micronucleus test, chromosome aberrations, Assay Code: MNTT, Evaluation Type: Evaluation B (Post-1980)
  mutagenic call: no conclusion
[9]
  mutagenic call: no conclusion

## CN(C)/N=N/c1nc[nH]c1C(N)=O
Species/Cell Type: Chinese hamster ovary (CHO) cells, Assay Type: Forward gene mutation at the HPRT locus, Assay Code: CHO+, Evaluation Type: Evaluation B (Post-1980)
  mutagenic call: active; positive
[2]
  mutagenic call: active; positive
[10]
  mutagenic call: active; positive
Species/Cell Type: Nonhuman, Assay Code: CCG+, Evaluation Type: Evaluation A (Pre-1980)
  call: active; positive
[7]
  mutagenic call: active; positive

## O=P(N1CC1)(N1CC1)N1CC1
[2]
  mutagenic call: active; positive
Species/Cell Type: Drosophila melanogaster, Sex: Male, Assay Type: Heritable translocation test, chromosome aberrations, Assay Code: DHT+, Evaluation Type: Evaluation A (Pre-1980)
  mutagenic call: active; positive
Species/Cell Type: Human lymphocytes or leukocytes, Assay Type: Chromosome aberrations in vitro, Assay Code: CY7+, Evaluation Type: Evaluation A (Pre-1980)
  mutagenic call: active; positive
Species/Cell Type: Human lymphocytes, Assay Type: Sister-chromatid exchange (SCE) in vitro, Assay Code: SCL+D, Dose Response: With dose response, Evaluation Type: Evaluation B (Post-1980)
  mutagenic call: active; positive
Species/Cell Type: Human, Assay Type: Sister-chromatid exchange (SCE) in vitro, Assay Code: SC1+D, Dose Response: With dose response, Evaluation Type: Evaluation B (Post-1980)
  mutagenic call: active; positive
Species/Cell Type: Mammalian germ cells, Sex: Male, Assay Type: Chromosome aberrations in vivo, Assay Code: CY9T, Evaluation Type: Evaluation A (Pre-1980)
  mutagenic call: no conclusion
Species/Cell Type: Mouse, Sex: Male, Assay Type: Heritable translocation test, chromosome aberrations, Assay Code: HTT+, Evaluation Type: Evaluation A (Pre-1980)
  mutagenic call: active; positive
Species/Cell Type: Neurospora crassa, Assay Type: Forward gene mutation, Assay Code: NEF+, Evaluation Type: Evaluation A (Pre-1980)
  mutagenic call: active; positive
Species/Cell Type: Nonhuman, Assay Type: Chromosome aberrations in vitro, Assay Code: CY&+, Evaluation Type: Evaluation A (Pre-1980)
  mutagenic call: active; positive
[4]
  call: no conclusion
[11]
  mutagenic call: active; positive
Species/Cell Type: Rodents, Sex: Male, Assay Type: Dominant lethal test, Assay Code: DLT+, Evaluation Type: Evaluation A (Pre-1980)
  mutagenic call: active; positive
Species/Cell Type: Schizosaccharomyces pombe, Assay Type: Reverse gene mutation, Assay Code: YEZ+, Evaluation Type: Evaluation A (Pre-1980)
  mutagenic call: active; positive
Species/Cell Type: Vicia faba, Assay Type: Chromosome aberrations, Assay Code: VIC+, Evaluation Type: Evaluation A (Pre-1980)
  mutagenic call: active; positive

## FC(F)(F)C(Cl)Br (stereo unspecified)
Species/Cell Type: Chinese hamster lung (V79) cells, Assay Type: Forward gene mutation at the HPRT or ouabain locus, Assay Code: V79-, Evaluation Type: Evaluation A (Pre-1980)
  mutagenic call: inactive; negative
[2]
  mutagenic call: active; positive
[10]
  mutagenic call: active; positive
Species/Cell Type: Mouse, Sex: Male, Assay Type: Sperm morphology, Assay Code: SPI-, Evaluation Type: Evaluation A (Pre-1980)
  mutagenic call: inactive; negative
Species/Cell Type: Nonhuman, Assay Code: CCG-L, Evaluation Type: Evaluation A (Pre-1980)
  call: inactive; negative
[9]
  mutagenic call: no conclusion
Species/Cell Type: Nonhuman, Assay Type: Sister-chromatid exchange (SCE) in vivo, Assay Code: SC3T, Evaluation Type: Evaluation B (Post-1980)
  mutagenic call: no conclusion
Species/Cell Type: Saccharomyces cerevisiae, Assay Type: Mitotic recombination or gene conversion, Assay Code: YEC+, Evaluation Type: Evaluation A (Pre-1980)
  mutagenic call: active; positive
Species/Cell Type: Saccharomyces cerevisiae, Assay Type: Mitotic recombination or gene conversion, Assay Code: YEH+, Evaluation Type: Evaluation A (Pre-1980)
  mutagenic call: active; positive
[8]
  mutagenic call: active; positive
Species/Cell Type: Vicia faba, Assay Type: Chromosome aberrations, Assay Code: VIC+D, Dose Response: With dose response, Evaluation Type: Evaluation A (Pre-1980)
  mutagenic call: active; positive

## CC(O)CO (stereo unspecified)
Species/Cell Type: Human, Assay Type: Sister-chromatid exchange (SCE) in vitro, Assay Code: SC1-, Evaluation Type: Evaluation B (Post-1980)
  mutagenic call: inactive; negative
Species/Cell Type: Syrian hamster embryo (SHE) cells, Assay Type: Cell transformation, clonal assay, Assay Code: CTC-, Evaluation Type: Evaluation A (Pre-1980)
  mutagenic call: inactive; negative

## CC(C)(C#N)Nc1nc(Cl)nc(NC2CC2)n1
Species/Cell Type: Zea mays (corn), Assay Type: Gene mutation, Assay Code: ZEM-, Evaluation Type: Evaluation A (Pre-1980)
  mutagenic call: inactive; negative

## COc1cccc(OC)c1C(=O)N[C@@H]1C(=O)N2[C@@H]1SC(C)(C)[C@@H]2C(=O)O
Species/Cell Type: Escherichia coli polA (W3119 vs P3478), Assay Type: Rec-assay, DNA effects (bacterial DNA repair), Assay Code: RE1-, Evaluation Type: Evaluation A (Pre-1980)
  mutagenic call: inactive; negative

## Cc1c2ccccc2c(C)c2c1ccc1c(O)cccc12
Species/Cell Type: Chinese hamster lung (V79) cells, Assay Type: Forward gene mutation at the HPRT or ouabain locus, Assay Code: V79-*, Activation: With metabolic activation, Evaluation Type: Evaluation A (Pre-1980)
  mutagenic call: inactive; negative
[4]
  call: no conclusion

## Cc1ccc2ccc3cc4ccccc4cc3c2c1
[11]
  mutagenic call: active; positive
[12]
  mutagenic call: active; positive

## CCCCN(CC(O)CC)N=O (stereo unspecified)
[12]
  mutagenic call: active; positive

## Nc1nc(-c2csc(N)n2)cs1
[5]
  mutagenic call: no conclusion

## O=C1c2ccccc2C(=O)c2c(O)c(S(=O)(=O)O)cc(O)c21
[1]
  mutagenic call: active; positive
